According to ChEMBL document CHEMBL3881531, “ANT2 inhibitor compounds and methods of use thereof” (2009):

Legend:
[1] = molecular target: T1, ADP/ATP translocase 2 (Homo sapiens) (UniProt P05141); experiment: Inhibition of ANT2 in human HeLa cells assessed as growth inhibition at 50 uM incubated for 5 days by crystal violet staining based assay; assay type: cell-based
T1 sequence (whole entry): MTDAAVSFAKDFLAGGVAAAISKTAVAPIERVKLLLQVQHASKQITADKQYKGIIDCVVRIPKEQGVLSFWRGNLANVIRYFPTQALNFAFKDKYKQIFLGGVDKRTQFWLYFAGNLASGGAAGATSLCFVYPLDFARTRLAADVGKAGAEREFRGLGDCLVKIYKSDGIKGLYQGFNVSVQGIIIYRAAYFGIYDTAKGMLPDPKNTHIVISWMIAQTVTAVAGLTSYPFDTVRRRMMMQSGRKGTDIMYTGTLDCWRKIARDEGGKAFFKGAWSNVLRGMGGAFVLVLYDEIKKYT

[2] = molecular target: T1, ADP/ATP translocase 2 (Homo sapiens); experiment: Inhibition of ANT2 in human HeLa cells assessed as cell survival at 50 uM incubated for 5 days by crystal violet staining based assay
[3] = Cytotoxicity against mouse NIH/3T3 cells assessed as cell survival at 50 uM incubated for 5 days by crystal violet staining based assay; design: species or system NIH3T3; details: read-out: Survival

| SMILES | growth inhibition (GI) [1] [%] | Survival [2] [%] | viability at 120 h, 50 µM [3] [%] |
| --- | --- | --- | --- |
| CC(C)CC(=O)C1C(=O)c2ccccc2C1=O | 79 | 5 | 40 |
| O=C(CC(=O)C1C(=O)c2ccccc2C1=O)c1ccccc1 | 84 |  |  |
